This passage reports IC50 and Ratio results from ChEMBL document CHEMBL1134727, “Synthesis and structure-activity relationship of diarylamide derivatives as selective inhibitors of the proliferation of human coronary artery smooth muscle cells” (Bioorg Med Chem Lett, 2001).

A value given as a limit tells only on which side of the number the result lay.

The nature of experiment [1]: Inhibition of human coronary artery smooth muscle cells (SMC's) proliferation, induced by platelet-derived growth factor (PDGF-BB) 20 ng mL. The format is functional.
Experiment [2] in a line: Evaluated for inhibition of proliferation of human coronary artery endothelial cells (ECs), induced by 5 % FBS. The format is functional, cell-based. To be noted: Endothelial cell.
The nature of experiment [3]: Ratio of inhibitory activity on proliferation of human coronary artery smooth muscle cells to that of human coronary artery endothelial cells. The format is functional, Endothelial cell.

Usually IC50 stands for the concentration that gives 50% inhibition. On to `COc1ccc(C(=O)Nc2cc(OC)c(OC)cc2C(=O)N(C)C)cc1OC`, for which the IC50 in experiment [1] was more than 2000 nM.
`CCOC(=O)c1cc(OC)c(OC)cc1NC(=O)c1ccc(O)c(N)c1`: the concentration for half-maximal inhibition (IC50) in experiment [1] was more than 2000 nM.
As for `COc1cc(C(=O)Nc2cc([N+](=O)[O-])ccc2C(N)=O)cc(OC)c1OC`, the IC50 in experiment [2] is less than 2000 nM; in experiment [1] it was 1600 nM.
In the same order, the values of `CCOC(=O)c1cc(OC)c(OC)cc1NC(=O)c1ccc(OC)cc1` are less than 2000 nM and 610 nM.
In the case of `CCOC(=O)c1cc(OC)c(OC)cc1NC(=O)Cc1ccc(OC)c(OC)c1`, the IC50 in experiment [2] was 4700 nM; in experiment [1], 800 nM. Also, in experiment [3], the Ratio is given as 6.
In the same order, the values of `CCOC(=O)c1cc(OC)c(OC)cc1NC(=O)/C=C\c1ccc(OC)c(OC)c1` are 4100 nM, 1200 nM and 4.
In the case of `COc1ccc(C(=O)Nc2cc(OC)c(OC)cc2C(=O)O)cc1OC`, the 50% inhibitory concentration (IC50) in experiment [1] is more than 2000 nM.
Consider `CNC(=O)c1cc(OC)c(OC)cc1NC(=O)c1ccc(OC)c(OC)c1`, for which the IC50 in experiment [1] is more than 2000 nM.
For the compound `CCOC(=O)c1cc(OC)c(OC)cc1NC(=O)c1ccc(OC(C)=O)cc1`, the results for the half-maximal inhibitory concentration (IC50) in experiment [2] and in experiment [1] were 5200 nM and 1300 nM, respectively. Moreover, the Ratio in experiment [3] came to 4.
Turning to `CCOC(=O)c1cc(OC)c(OC)cc1NC(=O)c1ccccc1OC`, the results for the 50% inhibitory concentration (IC50) in experiment [2] and in experiment [1] were 3800 nM and 800 nM, respectively. In experiment [3], the Ratio was 5.
On the same counts, the results for `COc1ccc(/C=C/C(=O)Nc2ccccc2C(N)=O)cc1OC` are 34500 nM, 16700 nM and 2.
Turning to `COc1cc(C(=O)Nc2cc(N)ccc2C(N)=O)cc(OC)c1OC`, the IC50 in experiment [1] was more than 2000 nM.
For the compound `COc1ccc(C(=O)Nc2cc(OC)c(OC)cc2C#N)cc1OC`, the IC50 in experiment [1] was more than 2000 nM.
On to `CCOC(=O)c1cc(OC)c(OC)cc1NC(=O)c1ccc(OC)c(OC)c1OC`, for which the half-inhibitory concentration (IC50) worked out at 2900 nM in experiment [2] and 410 nM in experiment [1]. Moreover, the Ratio in experiment [3] was determined as 7.
For the compound `CCOC(=O)c1cc(OC)c(OC)cc1NC(=O)c1ccc(OC(C)=O)c(OC)c1`, the IC50 in experiment [1] stood at 2800 nM.
Take `CCOC(=O)c1cc(OC)c(OC)cc1NC(=O)c1cc(OC)c(OC)c(OC)c1`: the IC50 in experiment [2] amounted to 4600 nM; in experiment [1] it was 310 nM. Besides, the Ratio in experiment [3] is given as 15.
`COc1ccc(/C=C/C(=O)Nc2ccccc2C(=O)O)cc1OC` [TRANILAST]: the 50% inhibitory concentration (IC50) in experiment [2] turned out to be 19100 nM; in experiment [1], 24500 nM. Further, the Ratio in experiment [3] amounted to 0.8.
On the same counts, the results for `CCOC(=O)c1cc(OC)c(OC)cc1NC(=O)c1ccc(O)c([N+](=O)[O-])c1` are 7200 nM, 1800 nM and 4.
`CCOC(=O)c1cc(OC)c(OC)cc1NC(=O)c1cc(OC(C)=O)c(OC(C)=O)c(OC(C)=O)c1`: the IC50 in experiment [1] was more than 2000 nM.
As for `COc1ccc(C(=O)Nc2cc(OC)c(OC)cc2C(N)=O)cc1OC`, the IC50 in experiment [2] was more than 10000 nM; in experiment [1], 720 nM. In experiment [3], the Ratio is listed as more than 14.
In the same order, the values of `CCOC(=O)c1cc(OC)c(OC)cc1NC(=O)c1cccc(OC)c1` are 6100 nM, 1600 nM and 4.
In turn, `CCOC(=O)c1cc(OC)c(OC)cc1NC(=O)c1cc(OC)c(OC(C)=O)c(OC)c1` registered an IC50 in experiment [1] of 3100 nM.
The same measure, in the same setting: for `CCOC(=O)c1cc(OC)c(OC)cc1NC(=O)c1ccc(OC(C)=O)c(OC(C)=O)c1` the value was 2200 nM.
As to `CCOC(=O)c1cc(OC)c(OC)cc1NC(=O)c1ccc(OC)c(OC)c1`, the IC50 in experiment [2] is 6000 nM; in experiment [1], 850 nM. In addition, the Ratio in experiment [3] amounted to 7.
For the compound `COc1ccc(NC(=O)c2ccc(OC)c(OC)c2)cc1OC`, in experiment [1], the IC50 is more than 2000 nM.
Regarding `COc1cc(C(=O)Nc2cc(F)c(F)cc2C(N)=O)cc(OC)c1OC`, the IC50 was more than 10000 nM in experiment [2] and 2000 nM in experiment [1]. For the same compound, the Ratio in experiment [3] is reported as more than 5.
As to `COc1cc(C(=O)Nc2ccc(Cl)cc2C(N)=O)cc(OC)c1OC`, in experiment [1], the half-maximal inhibitory concentration (IC50) was more than 2000 nM.
On the same count and under the same terms, for `COc1cc(C(=O)Nc2ccccc2C(N)=O)cc(OC)c1OC` the value was more than 2000 nM.
As to `CCOC(=O)c1ccccc1NC(=O)/C=C/c1ccc(OC)c(OC)c1`, the values for the IC50 in experiment [2] and in experiment [1] were 9500 nM and more than 50000 nM, respectively.
In experiment [1], `COc1cc(C(=O)Nc2cc(C)ccc2C(N)=O)cc(OC)c1OC` registered an IC50 of more than 2000 nM.
